Laboratory results from patent publication US4268685A, “Salicylamide esters and related pharmaceutical composition” (Neopharmed S.p.A., priority 1979, dated 1981).

What was measured:
[1] = solubility of the product; format: physicochemical
[2] = plasma content (bioavailability) after administration; details: in vivo
[3] = in vivo
[4] = test system: prostaglandine synthetases; experiment: forming of prostaglandine synthetases
hot plate test = details: in vivo
From the text: The pharmacological tests, as carried out with the compound of example 3, show: […]

[5] = in vivo, po

With COc1ccc2cc([C@H](C)C(=O)Oc3ccccc3C(N)=O)ccc2c1 [Example 1, Ester of salicylamide with 2-(6'-methoxy-2'-naphtyl)-propionic acid] the solubility in acetone ([1]; acetone) was “soluble”, the solubility in alcohol ([1]; alcohol) was “little soluble” and the solubility in benzene ([1]; benzene) was “little soluble”. For the same molecule, the solubility in chloroform ([1]; chloroform) was “little soluble”, the solubility in pyridine ([1]; pyridine) was “soluble” and the solubility in water ([1]; water) was “insoluble”.

In the case of CC(C)Cc1ccc(C(C)C(=O)Oc2ccccc2C(N)=O)cc1 (centres unmarked) [Example 3, Ester of salicylamide with 2-(4-isobutyl-phenyl)-propionic acid], the time extended action [2] was “time extended action”, the “time for which plasma content remains essentially unchanged” value ([3]; po) was “more than 7 hours” and the “effect on the forming of prostaglandine synthetases” value (shortened to “effect on the forming”) [4] was “enhanced”. The “activity at the hot plate test” value (hot plate test) was “high activity”.

With CC(C)Cc1ccc(C(C)C(=O)O)cc1 (centres unmarked) [Ibuprofen, 2-(4-isobutyl-phenyl)-propionic acid] the Tmax [5] was 1 h and the “effect on the forming” value [4] was “opposite behaviour”.

For COc1ccc2c(c1)c(CC(=O)O)c(C)n2C(=O)c1ccc(Cl)cc1 [indomethacin], the “effect on the forming” value [4] was “opposite behaviour”.

For NC(=O)c1ccccc1O [salicylamide], the “presence of salicylamide in the plasma” value [3] was “not present in the plasma”.
